Assay results published in patent US20210261527A1, “OGA INHIBITOR COMPOUNDS” (Janssen Pharmaceutica NV, priority 2018, published 2021).
Where a name gives a salt, the structure may show the parent alone.

How the values were obtained:
[1] = biological target: T1, recombinant human Meningioma Expressed Antigen 5 (MGEA5), also referred to as O-GlcNAcase (OGA) (Homo sapiens, UniProt O60502); assay: OGA biochemical assay (FM-GlcNAc hydrolysis, fluorescence); details: full length OGA 2 nM, FM-GlcNAc 100 uM, pH 7.2, 6 h at room temperature; for Emax: read-out: Enzymatic Emax (%); for IC50: read-out: Enzymatic hOGA, pIC50 (converted)
T1 construct: Full length OGA enzyme was purchased at OnGene (cat #TP322411); purchased OnGene (so in the source)
T1 sequence (O60502 1-916): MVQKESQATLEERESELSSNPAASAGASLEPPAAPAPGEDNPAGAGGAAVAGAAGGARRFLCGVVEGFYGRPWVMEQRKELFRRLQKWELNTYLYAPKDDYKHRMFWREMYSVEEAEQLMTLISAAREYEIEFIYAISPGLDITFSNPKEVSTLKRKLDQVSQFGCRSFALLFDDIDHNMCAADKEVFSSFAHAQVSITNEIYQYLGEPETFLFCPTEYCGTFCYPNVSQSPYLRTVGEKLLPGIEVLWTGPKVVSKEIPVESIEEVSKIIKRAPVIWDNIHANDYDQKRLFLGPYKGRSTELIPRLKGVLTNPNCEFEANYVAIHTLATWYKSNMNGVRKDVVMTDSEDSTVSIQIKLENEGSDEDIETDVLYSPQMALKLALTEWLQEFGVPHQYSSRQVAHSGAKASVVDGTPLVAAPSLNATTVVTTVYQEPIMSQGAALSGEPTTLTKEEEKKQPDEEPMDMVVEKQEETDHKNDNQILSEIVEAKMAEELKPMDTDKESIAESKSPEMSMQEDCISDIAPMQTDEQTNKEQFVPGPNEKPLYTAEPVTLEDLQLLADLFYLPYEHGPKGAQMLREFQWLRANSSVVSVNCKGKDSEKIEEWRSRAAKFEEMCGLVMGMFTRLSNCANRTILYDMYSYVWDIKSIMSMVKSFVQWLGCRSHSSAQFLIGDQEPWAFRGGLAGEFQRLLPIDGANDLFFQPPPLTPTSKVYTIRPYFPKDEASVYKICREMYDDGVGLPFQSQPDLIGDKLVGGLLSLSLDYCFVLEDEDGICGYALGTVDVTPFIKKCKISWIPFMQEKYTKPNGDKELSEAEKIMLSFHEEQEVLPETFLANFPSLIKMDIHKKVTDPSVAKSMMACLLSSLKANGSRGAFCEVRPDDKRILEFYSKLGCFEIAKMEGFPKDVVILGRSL
Text: The assay is based on the inhibition of the hydrolysis of fluorescein mono-β-D-N-Acetyl-Glucosamine (FM-GlcNAc) (Mariappa et al. 2015, Biochem J 470:255) by the recombinant human Meningioma Expressed Antigen 5 (MGEA5), also referred to as O-GlcNAcase (OGA). The hydrolysis FM-GlcNAc (Marker Gene technologies, cat #M1485) results in the formation of β-D-N-glucosamineacetate and fluorescein. The fluorescence of the latter can be measured at excitation wavelength 485 nm and emission wavelength 538 nm. An increase in enzyme activity results in an increase in fluorescence signal. Full length OGA enzyme was purchased at OnGene (cat #TP322411). The enzyme was stored in 25 mM Tris.HCl, pH 7.3, 100 mM glycine, 10% glycerol at −20° C. Thiamet G and GlcNAcStatin were tested as reference compounds (Yuzwa et al. 2008 Nature Chemical Biology 4:483; Yuzwa et al. 2012 Nature Chemical Biology 8:393). The assay was performed in 200 mM Citrate/phosphate buffer supplemented with 0.005% Tween-20. 35.6 g Na2HPO4 2 H2O (Sigma, #C0759) were dissolved in 1 L water to obtain a 200 mM solution. 19.2 g citric acid (Merck, #1.06580) was dissolved in 1 L water to obtain a 100 mM solution. pH of the sodiumphosphate solution was adjusted with the citric acid solution to 7.2. The buffer to stop the reaction consists of a 500 mM Carbonate buffer, pH 11.0. 734 mg FM-GlcNAc were dissolved in 5.48 mL DMSO to obtain a 250 mM solution and was stored at −20° C. OGA was used at a 2 nM concentration and FM-GlcNAc at a 100 uM final concentration. Dilutions were prepared in assay buffer.
50 nl of a compound dissolved in DMSO was dispensed on Black Proxiplate™ 384 Plus Assay plates (Perkin Elmer, #6008269) and 3 μl fl-OGA enzyme mix added subsequently. Plates were pre-incubated for 60 min at room temperature and then 2 μl FM-GlcNAc substrate mix added. […] Plates were briefly centrifuged for 1 min at 1000 rpm and incubate at room temperature for 6 h. To stop the reaction 5 μl STOP buffer were added and plates centrifuge again 1 min at 1000 rpm. Fluorescence was quantified in the Thermo Scientific Fluoroskan Ascent or the PerkinElmer EnVision with excitation wavelength 485 nm and emission wavelength 538 nm.
For analysis a best-fit curve is fitted by a minimum sum of squares method. From this an IC50 value and Hill coefficient was obtained. High control (no inhibitor) and low control (saturating concentrations of standard inhibitor) were used to define the minimum and maximum values.

[2] = biological target: T2, hOGA in HEK293 cells inducible for P301L mutant human Tau (isoform 2N4R) (Homo sapiens, UniProt O60502); assay: OGA cellular assay (ICC detection of O-GlcNAcylated proteins); format: cell-based; details: 6 hours incubation; for Emax: maximum = Thiamet G at 200 uM; for EC50: O-GlcNAcylation intensity readout at 488 nm, read-out: Cellular hOGA, pEC50 (converted)
T2 construct: endogenous in cells; host or cells: HEK293 cells inducible for P301L mutant human Tau (isoform 2N4R)
T2 sequence (O60502 1-916): T1 sequence (O60502 1-916)
Procedure: HEK293 cells inducible for P301L mutant human Tau (isoform 2N4R) were established at Janssen. Thiamet-G was used for both plate validation (high control) and as reference compound (reference EC50 assay validation). OGA inhibition is evaluated through the immunocytochemical (ICC) detection of O-GlcNAcylated proteins by the use of a monoclonal antibody (CTD110.6; Cell Signaling, #9875) detecting 0-GlcNAcylated residues as previously described (Dorfmueller et al. 2010 Chemistry & biology, 17:1250). Inhibition of OGA will result in an increase of O-GlcNAcylated protein levels resulting in an increased signal in the experiment. Cell nuclei are stained with Hoechst to give a cell culture quality control and a rough estimate of immediate compounds toxicity, if any. ICC pictures are imaged with a Perkin Elmer Opera Phenix plate microscope and quantified with the provided software Perkin Elmer Harmony 4.1.
Cells were propagated in DMEM high Glucose (Sigma, #D5796) following standard procedures. 2 days before the cell assay cells are split, counted and seeded in Poly-D-Lysine (PDL) coated 96-wells (Greiner, #655946) plate at a cell density of 12,000 cells per cm^2 (4,000 cells per well) in 100 μl of Assay Medium (Low Glucose medium is used to reduce basal levels of GlcNAcylation) (Park et al. 2014 The Journal of biological chemistry 289:13519). At the day of compound test medium from assay plates was removed and replenished with 90 μl of fresh Assay Medium. 10 μl of compounds at a 10fold final concentration were added to the wells. Plates were centrifuged shortly before incubation in the cell incubator for 6 hours. DMSO concentration was set to 0.2%. Medium is discarded by applying vacuum. For staining of cells medium was removed and cells washed once with 100 μl D-PBS (Sigma, #D8537). From next step onwards unless other stated assay volume was always 50 μl and incubation was performed without agitation and at room temperature. Cells were fixed in 50 μl of a 4% paraformaldehyde (PFA, Alpha aesar, #043368) PBS solution for 15 minutes at room temperature. […] Before analysis samples were washed 2 times manually for 5 minutes in ICC base buffer.
Imaging is performed using Perkin Elmer Phenix Opera using a water 20× objective and recording 9 fields per well. Intensity readout at 488 nm is used as a measure of O-GlcNAcylation level of total proteins in wells. To assess potential toxicity of compounds nuclei were counted using the Hoechst staining. IC50-values are calculated using parametric non-linear regression model fitting. As a maximum inhibition Thiamet G at a 200 uM concentration is present on each plate. In addition, a concentration response of Thiamet G is calculated on each plate.

Row | SMILES | melting point [°C] | Emax [1] [%] | IC50 [1] [nM] | Emax [2] [%] | EC50 [2] [nM]
1 | Cc1cc(C[C@H]2CCCN(C(C)c3ccc4cccnc4c3)C2)cc(C)n1 (mixture of isomers) (as salt: HCl) [Compound 9] | 262.69 |  |  |  | 
2 | Cc1cc(C[C@H]2CCCN(C(C)c3cc4ncccc4cn3)C2)cc(C)n1 (mixture of isomers) [Compound 6] |  | 99.6 | 47.9 | 41.1 | 
3 | Cc1cc(C[C@H]2CCCN(C(C)c3ccc4cccnc4n3)C2)cc(C)n1 (mixture of isomers) [Compound 7] |  | 101 | 14.8 | 71.1 | 234
4 | Cc1cc(C[C@H]2CCCN(C(C)c3ccc4nc(O)cnc4c3)C2)cc(C)n1 (mixture of isomers) [Compound 10] |  | 101 | 107 | 11.2 | > 1000
5 | Cc1cc(C[C@H]2CCCN([C@@H](C)c3ccc4ccc(C)nc4c3)C2)cc(C)n1 (single isomer, unassigned) [Compound 2] |  | 60.8 | 7240 |  | 
6 | Cc1cc(C[C@H]2CCCN([C@H](C)c3ccc4ccc(C)nc4c3)C2)cc(C)n1 (single isomer, unassigned) [Compound 3] |  | 101 | 53.7 | 34.8 | > 1000
7 | Cc1cc(C[C@H]2CCCN([C@@H](C)c3cnc4cccnc4c3)C2)cc(C)n1 (single isomer, unassigned) [Compound 4] |  | 102 | 28.8 | 50.5 | 646
8 | Cc1cc(C[C@H]2CCCN([C@H](C)c3cnc4cccnc4c3)C2)cc(C)n1 (single isomer, unassigned) [Compound 5] |  | 103 | 5.5 | 86.4 | 162
9 | Cc1cc(C[C@H]2CCCN(Cc3ccc4cccnc4c3)C2)cc(C)n1 [Compound 1] | 152.83 | 95.8 | 288 | 33 | > 1000
10 | Cc1cc(C[C@H]2CCCN(Cc3ccc4cccnc4n3)C2)cc(C)n1 [Compound 8] |  | 98.5 | 195 | 29.8 | > 1000
